# Experimental data reported in patent US7655629B2, “Peptides and their use for the treatment of HIV infections” (priority 2002, dated 2010).
# Positions of bridges follow the written chain, without caps; N, C: chain ends. Non-standard residues stand in square brackets, D forms with d. Residues, ends and D or L forms follow the SMILES beside them.
# System: X4-tropic HIV-1 NL4-3
# Details: read-out: IC50 NL4-3; P4-CCR5 cells, HIV-1 NL4-3, peptide 2 h before infection, readout three days after infection
# Description: These cells contain the β-galactosidase reporter gene under the control of the HIV-1 promoter. Thus, activation of the β-galactosidase reporter gene allows to measure the efficiency of HIV-1 infection and thus to quantitate the potency of HIV-1 inhibitors (Detheux M. et al., 2000; Journal of Experimental Medicine 192, 1501-1508; Münch et al., 2002; Antimicrobial Agents and Chemotherapy 46, 982-990).
# To perform a typical infection assay, P4-CCR5 cells (Charneau et al., 1994; Journal of Molecular Biology 241, 651-662; Charneau et al., Virology. 1994 205, 247-53) were kept in RPMI 1640 medium supplemented with 10 volume % FCS. This cell line coexpresses CD4 and both HIV-1 coreceptors CCR5 and CXCR4 and contains the β-galactosidase gene under the control of the HIV-1 promoter. Virus stocks were generated by the calcium coprecipitation method as described (Detheux et al., J Exp Med. 192:1501-8; 2000), and the p24 antigen levels were quantitated with an HIV p24 ELISA kit obtained through the NIH AIDS Reagent Program. Cells were seeded in flat-bottomed 96-well dishes, cultured overnight, and incubated with the different doses of peptide for 2 h before infection with virus containing 1 ng of p24 antigen in a total volume of […] of medium. After overnight incubation, cells were washed twice and cultivated in fresh culture medium without inhibitory peptide. Three days after infection the cells were lysed, and infectivity was quantitated using the Galacto-Light Plus™ chemiluminescence reporter assay kit (Tropix, Bedford, Mass.) as recommended by the manufacturer. All infections were performed in quintuplicate.
row,Structure (SMILES),IC50
1,"CC[C@H](C)[C@H](NC(=O)[C@H](C)NC(=O)[C@H](CCC(=O)O)NC(=O)[C@@H](N)CC(C)C)C(=O)N1CCC[C@H]1C(=O)N[C@@H](CCSC)C(=O)NCC(=O)N[C@H](C(=O)N1CCC[C@H]1C(=O)N1CCC[C@@H]1C(=O)N[C@@H](CCC(=O)O)C(=O)N[C@@H](Cc1ccccc1)C(=O)N[C@@H](CC(C)C)C(=O)N[C@@H](Cc1ccccc1)C(=O)N[C@@H](CC(N)=O)C(=O)N[C@@H](CCCCN)C(=O)N1CCC[C@H]1C(=O)N[C@@H](Cc1ccccc1)C(=O)N[C@H](C(=O)N[C@@H](Cc1ccccc1)C(=O)O)C(C)C)[C@@H](C)CC [VIR-323, LEAIPMGIPpEFLFNKPFVF] (H-LEAIPMGIP[dP]EFLFNKPFVF-OH)",924 nM
2,"CC[C@H](C)[C@H](NC(=O)[C@H](CC(=O)O)NC(=O)[C@H](CCC(=O)O)NC(=O)[C@@H](N)CC(C)C)C(=O)N1CCC[C@H]1C(=O)N[C@@H](CCSC)C(=O)NCC(=O)N[C@H](C(=O)N1CCC[C@H]1C(=O)N1CCC[C@@H]1C(=O)N[C@@H](CCC(=O)O)C(=O)N[C@H](C(=O)N[C@@H](C)C(=O)N[C@@H](Cc1ccccc1)C(=O)N[C@@H](CC(N)=O)C(=O)N[C@@H](CCCCN)C(=O)N1CCC[C@H]1C(=O)N[C@@H](Cc1ccccc1)C(=O)N[C@H](C(=O)N[C@@H](Cc1ccccc1)C(=O)O)C(C)C)C(C)C)[C@@H](C)CC [VIR-326, LEDIPMGIPpEVAFNKPFVF] (H-LEDIPMGIP[dP]EVAFNKPFVF-OH)",963 nM
3,"CC[C@H](C)[C@H](NC(=O)[C@H](C)NC(=O)[C@H](CCC(=O)O)NC(=O)[C@@H](N)CC(C)C)C(=O)N1CCC[C@H]1C(=O)N[C@@H](CCSC)C(=O)NCC(=O)N[C@H](C(=O)N1CCC[C@H]1C(=O)N1CCC[C@@H]1C(=O)N[C@@H](CCC(=O)O)C(=O)N[C@H](C(=O)N[C@@H](Cc1c[nH]c2ccccc12)C(=O)N[C@@H](Cc1ccccc1)C(=O)N[C@@H](CC(N)=O)C(=O)N[C@@H](CCCCN)C(=O)N1CCC[C@H]1C(=O)N[C@@H](Cc1ccccc1)C(=O)N[C@H](C(=O)N[C@@H](Cc1ccccc1)C(=O)O)C(C)C)C(C)C)[C@@H](C)CC [VIR-328, LEAIPMGIPpEVWFNKPFVF] (H-LEAIPMGIP[dP]EVWFNKPFVF-OH)",685 nM
4,CC[C@H](C)[C@H](NC(=O)[C@H](C)NC(=O)[C@H](CCC(=O)O)NC(=O)[C@@H](N)CC(C)C)C(=O)N1CCC[C@H]1C(=O)N[C@H]1CSSC[C@@H](C(=O)N[C@@H](CC(C)C)C(=O)N[C@@H](C)C(=O)N[C@@H](Cc2ccccc2)C(=O)N[C@@H](C)C(=O)N[C@@H](CCCCN)C(=O)N2CCC[C@H]2C(=O)N[C@@H](Cc2ccccc2)C(=O)N[C@H](C(=O)N[C@@H](Cc2ccccc2)C(=O)O)C(C)C)NC(=O)[C@@H]2CCCN2C(=O)[C@@H]2CCCN2C(=O)[C@H]([C@@H](C)CC)NC(=O)[C@H](CO)NC1=O [VIR-346] (H-LEAIPCSIPPCLAFAKPFVF-OH; disulfide 6-11),541 nM
5,"CC[C@H](C)[C@H](NC(=O)[C@H](C)NC(=O)[C@H](CCC(=O)O)NC(=O)[C@@H](N)CC(C)C)C(=O)N1CCC[C@H]1C(=O)N[C@@H](CS)C(=O)N[C@@H](CO)C(=O)N[C@H](C(=O)N1CCC[C@H]1C(=O)N1CCC[C@@H]1C(=O)N[C@@H](CS)C(=O)N[C@H](C(=O)N[C@@H](Cc1ccccc1)C(=O)N[C@@H](Cc1ccccc1)C(=O)NCC(=O)N[C@@H](CCCCN)C(=O)N1CCC[C@H]1C(=O)N[C@@H](Cc1ccccc1)C(=O)N[C@H](C(=O)N[C@@H](Cc1ccccc1)C(=O)O)C(C)C)C(C)C)[C@@H](C)CC [VIR-350, LEAIPCSIPpCVFFGKPFVF] (H-LEAIPCSIP[dP]CVFFGKPFVF-OH)",198 nM
6,"CC[C@H](C)[C@H](NC(=O)[C@H](C)NC(=O)[C@H](CCC(=O)O)NC(=O)[C@@H](N)CC(C)C)C(=O)N1CCC[C@H]1C(=O)N[C@H]1CSSC[C@@H](C(=O)N[C@H](C(=O)N[C@@H](C)C(=O)N[C@@H](Cc2ccccc2)C(=O)N[C@@H](CC(N)=O)C(=O)N[C@@H](CCCCN)C(=O)N2CCC[C@H]2C(=O)N[C@@H](Cc2ccccc2)C(=O)N[C@H](C(=O)N[C@@H](Cc2ccccc2)C(=O)O)C(C)C)C(C)C)NC(=O)[C@H]2CCCN2C(=O)[C@@H]2CCCN2C(=O)[C@H]([C@@H](C)CC)NC(=O)CNC1=O [VIR-355, LEAIPCGIPpCVAFNKPFVF] (H-LEAIPCGIP[dP]CVAFNKPFVF-OH; disulfide 6-11)",582 nM
